Source: patent publication US12479827B2, “Heteroaromatic carboxamide derivatives as plasma kallikrein inhibitors” (Boehringer Ingelheim International GmbH, priority 2020, dated 2025)

Assays:
Type in all cases: biochemical
human TK1 = biological target: T1, human TK1 (Homo sapiens, UniProt P06870); experiment: Inhibition of TK1 (Ki); settings: activated human TK1, substrate H-Pro-Phe-Arg-AMC, 24° C.
T1 construct: purchased R&D Systems
Method: The ability of compounds of formula (I) to inhibit plasma kallikrein (PKK), Factor XIIa (FXIIa), Factor XIa (FXIa), Factor Xa (FXa), Factor IIa (alpha-thrombin; FIIa), plasmin, trypsin, tissue kallikrein 1 (TK1), Factor VIIa (FVIIa), or FVIIa complexed with Tissue Factor, phospholipids and CaCl2 (FVIIa/TF/PL/CaCl2) is determined using the following biochemical assays in assay buffer (100 mM Tris, 150 mM NaCL, adjusted to a pH of 7.8 with HCl, and containing 0.1% (w/v) BSA and 0.05% (v/v) Tween20) in the presence of 1% (v/v) DMSO:
Prior to the assay, human TK1 (R&D Systems) is activated by incubation with human trypsin (Calbiochem) in a 1:10,000 ratio for 15 min at 37° C. For assaying TK1 inhibitory activity, activated TK1 (31.25 nM or 1 U/mL) is incubated at 24° C. with 0.1 mM fluorogenic substrate H-Pro-Phe-Arg-AMC (11295 from Bachem) and various concentrations of the test compound in assay buffer. Measurements are performed in a kinetic interval every 2nd minute for 16 min using a Spectramax M5 (Molecular Devices) with the following settings of the wavelength excitation of 350 nm and wavelength emission of 450 nm.
The pIC50 values are then fitted using a four-parametric fitting procedure using GraphPad Prism (version 6; GraphPad Software, Inc.). Respective Ki values are obtained by correction of the IC50 values for the respective KM value of the used substrate (see Table A for the obtained KM values of the used substrates) using the following formula:
[formula] Where the IC50 is in molar and the KM value in mM.

Human PKK = biological target: T2, Human PKK (Homo sapiens, UniProt P03952); experiment: Inhibition of PKK using an endpoint assay (human PKK); settings: fluorogenic substrate H-Pro-Phe-Arg-AMC, 1 h room temperature, method names human or rat PKK, table does not say which
T2 construct: purchased Enzyme Research Laboratories
Outline: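 Human PKK inhibition measured in 100 mM Tris, 150 mM NaCl, pH 7.8, 0.1% BSA, 0.05% Tween20, 1% DMSO. Endpoint format: reaction stopped with PPACK II at 1 μM final, fluorescence read at 355 nm excitation/460 nm emission.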

[1] = biological target: T3, PKK in kaolin activated human platelet poor plasma (Homo sapiens, UniProt P03952); experiment: Inhibition of PKK in kaolin activated human PPP; settings: 25-750 μg/mL kaolin, global fit, text b200 calls the values IC90;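 further: readout is the rate of fluorogenic substrate cleavage in rfu per min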
T3 construct: Platelet poor plasma (PPP) obtained from human wholeblood; from tissue
Method: Platelet poor plasma (PPP) obtained from human wholeblood, anticoagulated with Na-Citrate, is incubated with various concentrations of the test compound together with either 25, 75, 250, or 750 μg/mL kaolin in assay buffer for 20 min at 37° C. such that for each kaolin dose used a concentration response is obtained for the test compound.

T1 sequence (P06870 25-262): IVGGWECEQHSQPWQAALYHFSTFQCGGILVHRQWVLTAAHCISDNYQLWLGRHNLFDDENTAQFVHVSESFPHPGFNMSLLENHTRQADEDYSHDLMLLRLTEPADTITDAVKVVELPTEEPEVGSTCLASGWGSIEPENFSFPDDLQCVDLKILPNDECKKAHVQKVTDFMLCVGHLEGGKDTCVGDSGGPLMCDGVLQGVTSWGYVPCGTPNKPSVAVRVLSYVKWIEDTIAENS
T2 sequence (P03952 20-390 limits assumed): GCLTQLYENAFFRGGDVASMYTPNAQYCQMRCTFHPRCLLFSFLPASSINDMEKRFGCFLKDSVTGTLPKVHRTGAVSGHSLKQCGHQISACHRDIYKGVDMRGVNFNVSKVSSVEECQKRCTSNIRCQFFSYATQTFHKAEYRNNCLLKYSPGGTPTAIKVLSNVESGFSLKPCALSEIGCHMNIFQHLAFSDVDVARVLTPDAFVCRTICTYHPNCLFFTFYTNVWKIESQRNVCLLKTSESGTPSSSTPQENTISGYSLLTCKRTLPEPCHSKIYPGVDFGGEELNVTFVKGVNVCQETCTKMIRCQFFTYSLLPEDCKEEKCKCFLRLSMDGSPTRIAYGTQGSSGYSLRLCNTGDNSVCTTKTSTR
T2 sequence (P03952 391-638 limits assumed): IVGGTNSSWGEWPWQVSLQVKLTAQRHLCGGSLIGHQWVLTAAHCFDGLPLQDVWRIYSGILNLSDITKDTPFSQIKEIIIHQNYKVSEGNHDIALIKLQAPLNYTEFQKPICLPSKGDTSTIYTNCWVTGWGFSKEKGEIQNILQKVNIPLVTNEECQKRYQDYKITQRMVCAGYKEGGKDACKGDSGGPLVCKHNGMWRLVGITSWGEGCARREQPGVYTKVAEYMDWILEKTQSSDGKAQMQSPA
T3 sequence (P03952 391-638 limits assumed): as above
T3 sequence (P03952 20-390 limits assumed): as the sequence (P03952 20-390 limits assumed) above

| SMILES | Ki (human TK1) [nM] | IC50 (Human PKK) [nM] | IC50 [1] [nM] |
| --- | --- | --- | --- |
| Cc1nc(N2CC3CC3C2)ccc1Cn1cc(C(=O)N[C@@H]2CCc3c2ncn3C)c(C(C)(C)O)n1 (stereo partly drawn) [Example 125, 1-[(6-{3-Azabicyclo[3.1.0]hexan-3-yl}-2-methylpyridin-3-yl)methyl]-3-(2-hydroxypropan-2-yl)-N-[(4R)-1-methyl-1H,4H,5H,6H-cyclopenta-[d]imidazol-4-yl]-1H-pyrazole-4-carboxamide] | > 10000 | 1.1 | 2740 |
| COCc1nn(Cc2ccc(N3CC4C(C3)C4(F)F)nc2C)cc1C(=O)N[C@@H]1CCc2c1ncn2C (stereo partly drawn) [Example 126, 1-[(6-{6,6-Difluoro-3-azabicyclo[3.1.0]hexan-3-yl}-2-methylpyridin-3-yl)methyl]-3-(methoxymethyl)-N-[(4R)-1-methyl-1H,4H,5H,6H-cyclopenta[d]imidazol-4-yl]-1H-pyrazole-4-carboxamide] | > 10000 | 0.6 | 681 |
| Cn1cnc2c1CC[C@H]2NC(=O)c1cnn(Cc2ccc(N3CC4CC4C3)nc2Cl)c1 (stereo partly drawn) [Example 127, 1-[(6-{3-Azabicyclo[3.1.0]hexan-3-yl}-2-chloropyridin-3-yl)methyl]-N-[(4R)-1-methyl-1H,4H,5H,6H-cyclopenta[d]imidazol-4-yl]-1H-pyrazole-4-carboxamide] | > 10000 | 1.2 | 1680 |
| Cc1nc(N2CC3CC3C2)c(C#N)cc1Cn1cc(C(=O)N[C@@H]2CCc3c2ncn3C)cn1 (stereo partly drawn) [Example 128, 1-[(6-{3-Azabicyclo[3.1.0]hexan-3-yl}-5-cyano-2-methylpyridin-3-yl)methyl]-N-[(4R)-1-methyl-1H,4H,5H,6H-cyclopenta[d]imidazol-4-yl]-1H-pyrazole-4-carboxamide] | > 10000 | 5.1 | 1390 |

Results, then the compound that gave them:

| Ki (human TK1) [nM] | IC50 (Human PKK) [nM] | IC50 [1] [nM] | SMILES |
| --- | --- | --- | --- |
| > 10000 | 2.4 | 934 | Cn1cnc2c1CC[C@H]2NC(=O)c1cn(Cc2cnc(N3CC4CC4C3)cc2Cl)cn1 (stereo partly drawn) [Example 120, 1-[(6-{3-Azabicyclo[3.1.0]hexan-3-yl}-4-chloropyridin-3-yl)methyl]-N-[(4R)-1-methyl-1H,4H,5H,6H-cyclopenta[d]imidazol-4-yl]-1H-imidazole-4-carboxamide] |
| > 10000 | 1.6 | 514 | Cn1cnc2c1CC[C@H]2NC(=O)c1cn(Cc2cnc(N3CC4CC4C3)cc2C(F)(F)F)cn1 (stereo partly drawn) [Example 121, 1-[(6-{3-Azabicyclo[3.1.0]hexan-3-yl}-4-(trifluoromethyl)pyridin-3-yl)methyl]-N-[(4R)-1-methyl-1H,4H,5H,6H-cyclopenta[d]imidazol-4-yl]-1H-imidazole-4-carboxamide] |
| > 10000 | 1.5 | 492 | Cn1cnc2c1CC[C@H]2NC(=O)c1cn(Cc2ccc(N3CC4CC4C3)nc2Cl)cn1 (stereo partly drawn) [Example 122, 1-[(6-{3-Azabicyclo[3.1.0]hexan-3-yl}-2-chloropyridin-3-yl)methyl]-N-[(4R)-1-methyl-1H,4H,5H,6H-cyclopenta[d]imidazol-4-yl]-1H-imidazole-4-carboxamide] |
| > 10000 | 0.9 | 1320 | COCc1nn(Cc2ccc(N3CC4CC4C3)nc2C)cc1C(=O)N[C@@H]1CCc2c1ncn2C (stereo partly drawn) [Example 123, 1-[(6-{3-Azabicyclo[3.1.0]hexan-3-yl}-2-methylpyridin-3-yl)methyl]-3-(methoxymethyl)-N-[(4R)-1-methyl-1H,4H,5H,6H-cyclopenta-[d]imidazol-4-yl]-1H-pyrazole-4-carboxamide] |
| > 10000 | 2.4 | 823 | Cc1nc(N2CC3CC3C2)c(C#N)cc1Cn1cnc(C(=O)N[C@@H]2CCc3c2ncn3C)c1 (stereo partly drawn) [Example 124, 1-[(6-{3-Azabicyclo[3.1.0]hexan-3-yl}-5-cyano-2-methylpyridin-3-yl)methyl]-N-[(4R)-1-methyl-1H,4H,5H,6H-cyclopenta[d]imidazol-4-yl]-1H-imidazole-4-carboxamide] |
